In patent publication US7846483B2, “Cosmetic composition for skin application suitable for relaxing expression wrinkles” (Labo Cosprophar AG, priority 2004, dated 2010):
Where no end group is shown, it is not given here.

Tests used:
[1] = system: endoplasmic reticulum vesicles; assay: Outflow of calcium ions from endoplasmic reticulum vesicles versus external magnesium ion concentration; format: biochemical; conditions: with an increase in the concentration of Mg++ in the medium (FIG. 2)
Experimental: In particular, the dependence of the flow at the outlet of the calcium ions on the external concentration of magnesium ions was evaluated. The results obtained are shown in the graph of FIG. 2.

[2] = system: nerve-muscle co-culture model; assay: Contraction frequency in a nerve-muscle co-culture model with acetyl Dipeptide-1 cetyl ester; format: cell-based; conditions: for contraction inhibition: 0.9%
Experimental: The decontracting efficacy was evaluated, of dipeptide N-acetyl tyrosyl-arginyl (Dipeptide) hexadecyl ester, dissolved in a hydro-glycol excipients.
• 1. […] Evaluation of the contraction frequency in a nerve-muscle co-culture model in incubation with acetyl Dipeptide-1 cetyl ester at 0.9% for 5 minutes and 2 h.

POMC gene = assay: Gene expression of the POMC gene in a culture of human keratinocytes; format: cell-based; conditions: human keratinocytes incubated for 24 h
CGRP = CGRP synthesis in a culture of neurons; format: cell-based; conditions: neurons incubated for 6 hours
[3] = system: nerve-muscle co-culture model; assay: In vitro efficacy test on pentapeptide: contraction frequency in a nerve-muscle co-culture model; format: cell-based; conditions: 0.3% by weight, contractions counted over 30 sec
Experimental: In vitro efficacy test on pentapeptide
The frequency of the contractions was determined in a nerve-muscle co-culture model to evaluate the decontracting capacity of pentapeptide gly-pro-arg-pro -ala-NH2 SEQ ID NO 1, used at a concentration of 0.3% by weight.

Magnesium ions
quantity of Calcium ions released from the endoplasmic reticulum vesicles [1]: decreases

N-acetyl tyrosyl-arginyl (Dipeptide) hexadecyl ester [acetyl Dipeptide-1 cetyl ester]
contraction inhibition ([2]; after 5 minutes of incubation, 1 fiber out of 3): higher than 20% | contraction inhibition ([2]; after 2 hours of incubation, all 3 fibers): 100% | over-expression of the POMC gene with respect to the reference (POMC gene; 0.9%): > +29% | over-expression of the POMC gene with respect to the reference (POMC gene; 1.9%): > +63% | reduction in the CGRP synthesis with respect to the reference (CGRP; 2.8%): −0% | reduction in the CGRP synthesis with respect to the reference (CGRP; 4.7%): −50%

gly-pro-arg-pro-ala-NH2 (GPRPA-NH2) [pentapeptide]
average reduction in the contraction frequency ([3]; after 1 minute of incubation): 69.75% | average reduction in the contraction frequency ([3]; after 2 hours of incubation): 60.75%

α-bungarotoxin [reference compound]
DECREASE IN THE MUSCULAR FIBER CONTRACTION, Positive reference (α-bungarotoxin) [2]: Blockage
